Experimental data published in article PMC3806475, “Marine Derived Hamacanthins as Lead for the Development of Novel PDGFRβ Protein Kinase Inhibitors” (Marine Drugs, 2013).

Experiments:
MET = MET (Homo sapiens, UniProt P08581); assay: 33PanQinase protein kinase activity assay; assay type: biochemical; details: recombinant kinase, 1 µM ATP
Source text: (§1) Recombinant protein kinases.

B-RAF-VE = B-RAF-VE (Homo sapiens, UniProt P15056, V600E); assay: 33PanQinase protein kinase activity assay; assay type: biochemical; details: recombinant kinase, 1 µM ATP
Source text: as §1

VEGF-R3 = VEGF-R3 (Homo sapiens, UniProt P35916); assay: 33PanQinase protein kinase activity assay; assay type: biochemical; details: recombinant kinase, 1 µM ATP
Source text: as §1

COT = COT (Homo sapiens, UniProt P41279); assay: 33PanQinase protein kinase activity assay; assay type: biochemical; details: recombinant kinase, 1 µM ATP
Source text: as §1

SAK = SAK (Homo sapiens, UniProt O00444); assay: 33PanQinase protein kinase activity assay; assay type: biochemical; details: recombinant kinase, 1 µM ATP
Source text: as §1

FLT3 = FLT3 (Homo sapiens, UniProt P36888); assay: 33PanQinase protein kinase activity assay; assay type: biochemical; details: recombinant kinase, 1 µM ATP
Source text: as §1

PLK1 = PLK1 (Homo sapiens, UniProt P53350); assay: 33PanQinase protein kinase activity assay; assay type: biochemical; details: recombinant kinase, 1 µM ATP
Source text: as §1

CK2a1 = CK2a1 (Homo sapiens, UniProt P68400); assay: 33PanQinase protein kinase activity assay; assay type: biochemical; details: recombinant kinase, 1 µM ATP
Source text: as §1

ERBB2 = ERBB2 (Homo sapiens, UniProt P04626); assay: 33PanQinase protein kinase activity assay; assay type: biochemical; details: recombinant kinase, 1 µM ATP
Source text: as §1

CDK4/CycD1 = CDK4/CycD1 (Homo sapiens, UniProt P11802); assay: 33PanQinase protein kinase activity assay; assay type: biochemical; details: recombinant kinase, 1 µM ATP
Aurora-B = Aurora-B (Homo sapiens, UniProt Q96GD4); assay: 33PanQinase protein kinase activity assay; assay type: biochemical; details: recombinant kinase, 1 µM ATP
CDK2/CycA = CDK2/CycA (Homo sapiens, UniProt P24941); assay: 33PanQinase protein kinase activity assay; assay type: biochemical; details: recombinant kinase, 1 µM ATP
INSR = INSR (Homo sapiens, UniProt P06213); assay: 33PanQinase protein kinase activity assay; assay type: biochemical; details: recombinant kinase, 1 µM ATP
Procedure: (§2) The inhibitory profile of compounds was determined using the following 24 protein kinases (GenBankAcc.No. available on http://www.proqinase.com/pages/science [29]): AKT1, ARK5, Aurora-A, Aurora-B, B-Raf-VE, CDK2/CycA, CDK4/CycD1, CK2-A1, EGF-R, EPHB4, ERBB2, FAK, IGF1-R, SRC, VEGF-R2, VEGF-R3, FLT3, INS-R, MET, PDGFRβ, PLK1, SAK, TIE2 and COT. All protein kinases were expressed using human cDNAs in Sf9 insect cells as recombinat GST-fusion proteins or His-tagged proteins by means of the baculovirus expression system. Kinases were purified by affinity chromatography using either GSH-agarose (Sigma) or Ni-NTA-agarose (Qiagen). The purity and identity of each kinase was determined by SDS-PAGE/silver staining and western blot analysis using specific antibodies.
(§3) Protein kinase Assay. A proprietary protein kinase assay (^33PanQinase® Activity Assay) was used for measuring the kinase activity of the 24 protein kinases. All protein kinase assays were performed in 96-well FlashPlates™ (Perkin Elmer/NEN, Boston, MA, USA) in a 50 µL reaction volumes. Assays for all enzymes were performed in a solution containing 60 mM HEPES-NaOH, pH 7.5, 3 mM MgCl2, 3 mM MnCl2, 3 µM Na-orthovanadate, 1.2 mM DTT, 50 µg/mL PEG20000, 1 µM [γ-33P]-ATP (approx. 5 × 10^5 cpm per well), recombinant protein kinase (50–400 ng). […] The IC50 values were measured by testing 10 concentrations of compounds by single sampling. […]

VEGF-R2 = VEGF-R2 (Homo sapiens, UniProt P35968); assay: 33PanQinase protein kinase activity assay; assay type: biochemical; details: recombinant kinase, 1 µM ATP
Source text: as §1

SRC = SRC (Homo sapiens, UniProt P12931); assay: 33PanQinase protein kinase activity assay; assay type: biochemical; details: recombinant kinase, 1 µM ATP
Procedure: (§4) Protein kinase Assay. A proprietary protein kinase assay (^33PanQinase® Activity Assay) was used for measuring the kinase activity of the 24 protein kinases. All protein kinase assays were performed in 96-well FlashPlates™ (Perkin Elmer/NEN, Boston, MA, USA) in a 50 µL reaction volumes. Assays for all enzymes were performed in a solution containing 60 mM HEPES-NaOH, pH 7.5, 3 mM MgCl2, 3 mM MnCl2, 3 µM Na-orthovanadate, 1.2 mM DTT, 50 µg/mL PEG20000, 1 µM [γ-33P]-ATP (approx. 5 × 10^5 cpm per well), recombinant protein kinase (50–400 ng). Depending upon the kinase being assayed, appropriate substrates were used and were as follows (substrates shown in parentheses): AKT1 (GSK3/14-27), ARK5 (autophosphorylation), Aurora-A, Aurora-B (Tetra(LRRWSLG)), B-Raf-VE (MEK1 KM), CDK2/CycA (histone H1), CDK4/CycD1 (Rb-CTF), CK2-A1 (Casein), EGF-R, EPHB4, ERBB2, FAK, IGF1-R, SRC, VEGF-R2, VEGF-R3 (poly(Glu,Tyr) 4:1), FLT3, INS-R, MET, PDGFRβ (poly(Ala,Glu,Lys,Tyr) 6:2:5:1), PLK1 (Casein), SAK (autophosphorylation), TIE2 (poly(Glu,Tyr) 4:1), COT (autophosphorylation). The IC50 values were measured by testing 10 concentrations of compounds by single sampling. The final DMSO concentration in the assay was 1% (v/v). The data were fitted using the 4-parameter logistic fit option of GraphPad Prism 5.

AKT1 = AKT1 (Homo sapiens, UniProt P31749); assay: 33PanQinase protein kinase activity assay; assay type: biochemical; details: recombinant kinase, 1 µM ATP
Procedure: as §4

[1] = tested on: TK 10, 786-0, M 14, and MCF-7 cell lines; assay: Cell viability assay (CellTiter-Glo), other cell lines; assay type: cell-based; details: TK 10, 786-0, M 14, MCF-7; 48 h; compared with HL-60
Procedure: In order to determine the cytotoxic profiles of compounds 5 and 8, they were evaluated in cell viability assays (Figure 7) including HL-60, a human myeloblastic leukemia cell line, as it has been shown that the proliferation and differentiation of these cells depend upon PDGFR-signalling. Cells were treated with compounds 5 and 8 and after 48 h incubation, their viability was determined. […] This is in line with the notion that HL-60 cells depend on PDGFR-signaling.
The cells were grown in RPMI 1640 Glutamax with 10% FCS, 100 µg/mL streptomycin and 100 U/mL Penicillin G and incubated in a 5% CO2 humidified atmosphere at 37 °C. For proliferation experiments, cells were seeded in 20 µL pro well into 384-well Greiner 384 CellStar® plates (Greiner Bio-One I. AG, Kremsmünster, AT). In addition to the test plates, one plate was prepared for the reference measurement at day zero. All plates were incubated for 24 h at 37 °C in a humidified atmosphere with 5% CO2. […] The viability of the cells in the day zero control plates were determined on the same day without adding any compounds. […] The luminescence signal was measured at the EnSpire® Multimode Plate Reader (PerkinElmer, Waltham, MA, USA). […] Measured raw data were converted into percent of cell growth by using the high control (0.5% DMSO v/v without compound) and the day zero control. […]

EPHB4 = EPHB4 (Homo sapiens, UniProt P54760); assay: 33PanQinase protein kinase activity assay; assay type: biochemical; details: recombinant kinase, 1 µM ATP
Procedure: as §4

Aurora-A = Aurora-A (Homo sapiens, UniProt O14965); assay: 33PanQinase protein kinase activity assay; assay type: biochemical; details: recombinant kinase, 1 µM ATP
Procedure: as §2, §3

FAK = FAK (Homo sapiens, UniProt Q05397); assay: 33PanQinase protein kinase activity assay; assay type: biochemical; details: recombinant kinase, 1 µM ATP
Procedure: Recombinant protein kinases. The inhibitory profile of compounds was determined using the following 24 protein kinases (GenBankAcc.No. available on http://www.proqinase.com/pages/science [29]): AKT1, ARK5, Aurora-A, Aurora-B, B-Raf-VE, CDK2/CycA, CDK4/CycD1, CK2-A1, EGF-R, EPHB4, ERBB2, FAK, IGF1-R, SRC, VEGF-R2, VEGF-R3, FLT3, INS-R, MET, PDGFRβ, PLK1, SAK, TIE2 and COT. All protein kinases were expressed using human cDNAs in Sf9 insect cells as recombinat GST-fusion proteins or His-tagged proteins by means of the baculovirus expression system. Kinases were purified by affinity chromatography using either GSH-agarose (Sigma) or Ni-NTA-agarose (Qiagen). The purity and identity of each kinase was determined by SDS-PAGE/silver staining and western blot analysis using specific antibodies.
Protein kinase Assay. A proprietary protein kinase assay (^33PanQinase® Activity Assay) was used for measuring the kinase activity of the 24 protein kinases. All protein kinase assays were performed in 96-well FlashPlates™ (Perkin Elmer/NEN, Boston, MA, USA) in a 50 µL reaction volumes. […] The IC50 values were measured by testing 10 concentrations of compounds by single sampling. […]

EGFR = EGFR (Homo sapiens, UniProt P00533); assay: biochemical
IGF1R = IGF1R (Homo sapiens, UniProt P08069); assay: 33PanQinase protein kinase activity assay; assay type: biochemical; details: recombinant kinase, 1 µM ATP
Procedure: as §4

PDGFRβ = PDGFRβ (Homo sapiens, UniProt P09619); assay: 33PanQinase protein kinase activity assay; assay type: biochemical; details: recombinant kinase, 1 µM ATP
Procedure: as §4

TIE2 = TIE2 (Homo sapiens, UniProt Q02763); assay: 33PanQinase protein kinase activity assay; assay type: biochemical; details: recombinant kinase, 1 µM ATP
Procedure: as §2, §3

ARK5 = ARK5 (Homo sapiens, UniProt O60285); assay: 33PanQinase protein kinase activity assay; assay type: biochemical; details: recombinant kinase, 1 µM ATP
Procedure: as §2, §3

HL-60 cells = assay: Cell viability assay (CellTiter-Glo); assay type: cell-based; details: Homo sapiens, 48 h incubation
Procedure: The cells were grown in RPMI 1640 Glutamax with 10% FCS, 100 µg/mL streptomycin and 100 U/mL Penicillin G and incubated in a 5% CO2 humidified atmosphere at 37 °C. For proliferation experiments, cells were seeded in 20 µL pro well into 384-well Greiner 384 CellStar® plates (Greiner Bio-One I. AG, Kremsmünster, AT). In addition to the test plates, one plate was prepared for the reference measurement at day zero. All plates were incubated for 24 h at 37 °C in a humidified atmosphere with 5% CO2. […] The final DMSO concentration in the assay was 0.5% v/v. The viability of the cells in the day zero control plates were determined on the same day without adding any compounds. The CellTiter-Glo® Viability Assay was used to determine the viability of cells using the standard protocol for this assay (Promega Corp., Madison, WI, USA). The luminescence signal was measured at the EnSpire® Multimode Plate Reader (PerkinElmer, Waltham, MA, USA). Test plates were incubated for further 48 h and the cell viability was defined as just described. Measured raw data were converted into percent of cell growth by using the high control (0.5% DMSO v/v without compound) and the day zero control. For dose-response studies, 11 different concentrations of compounds were tested in quadruplicates. The IC50 values were calculated using the 4-parameter logistic fit option of GraphPad Prism 5.

[2] = tested on: bacterial methicillin-resistant Staphylococcus (MRSA-PK); design: method as in PMID 22030393; details: cited from earlier work

PDGFRβ, sequence (P09619 33-1106): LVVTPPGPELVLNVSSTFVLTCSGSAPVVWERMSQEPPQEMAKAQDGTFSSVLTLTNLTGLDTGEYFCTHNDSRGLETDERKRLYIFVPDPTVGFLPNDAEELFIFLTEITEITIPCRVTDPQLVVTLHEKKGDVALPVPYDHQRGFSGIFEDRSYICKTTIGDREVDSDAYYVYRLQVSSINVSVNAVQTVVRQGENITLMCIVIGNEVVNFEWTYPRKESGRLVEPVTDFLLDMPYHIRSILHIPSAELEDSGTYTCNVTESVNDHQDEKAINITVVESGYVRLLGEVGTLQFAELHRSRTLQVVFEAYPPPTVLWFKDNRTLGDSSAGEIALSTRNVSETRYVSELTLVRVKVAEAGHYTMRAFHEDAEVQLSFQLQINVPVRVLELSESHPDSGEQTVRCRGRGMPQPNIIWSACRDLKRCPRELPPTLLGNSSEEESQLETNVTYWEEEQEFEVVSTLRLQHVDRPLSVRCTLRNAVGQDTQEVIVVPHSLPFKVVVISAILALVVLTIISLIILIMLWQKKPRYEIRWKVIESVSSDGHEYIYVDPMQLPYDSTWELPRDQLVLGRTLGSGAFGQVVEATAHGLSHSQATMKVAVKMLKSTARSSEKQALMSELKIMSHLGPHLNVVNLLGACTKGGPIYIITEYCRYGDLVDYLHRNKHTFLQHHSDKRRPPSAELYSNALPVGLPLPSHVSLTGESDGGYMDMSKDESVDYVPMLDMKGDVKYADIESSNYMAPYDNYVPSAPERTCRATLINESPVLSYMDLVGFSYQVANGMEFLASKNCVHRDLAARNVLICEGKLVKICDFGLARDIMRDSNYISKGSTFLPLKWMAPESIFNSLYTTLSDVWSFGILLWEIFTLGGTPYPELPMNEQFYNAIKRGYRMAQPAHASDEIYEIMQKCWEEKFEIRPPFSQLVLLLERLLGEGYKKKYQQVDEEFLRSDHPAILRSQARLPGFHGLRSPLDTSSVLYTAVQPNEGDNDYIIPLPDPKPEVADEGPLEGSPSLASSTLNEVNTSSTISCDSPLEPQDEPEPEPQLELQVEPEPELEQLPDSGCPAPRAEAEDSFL
VEGF-R3, sequence (P35916 25-1363): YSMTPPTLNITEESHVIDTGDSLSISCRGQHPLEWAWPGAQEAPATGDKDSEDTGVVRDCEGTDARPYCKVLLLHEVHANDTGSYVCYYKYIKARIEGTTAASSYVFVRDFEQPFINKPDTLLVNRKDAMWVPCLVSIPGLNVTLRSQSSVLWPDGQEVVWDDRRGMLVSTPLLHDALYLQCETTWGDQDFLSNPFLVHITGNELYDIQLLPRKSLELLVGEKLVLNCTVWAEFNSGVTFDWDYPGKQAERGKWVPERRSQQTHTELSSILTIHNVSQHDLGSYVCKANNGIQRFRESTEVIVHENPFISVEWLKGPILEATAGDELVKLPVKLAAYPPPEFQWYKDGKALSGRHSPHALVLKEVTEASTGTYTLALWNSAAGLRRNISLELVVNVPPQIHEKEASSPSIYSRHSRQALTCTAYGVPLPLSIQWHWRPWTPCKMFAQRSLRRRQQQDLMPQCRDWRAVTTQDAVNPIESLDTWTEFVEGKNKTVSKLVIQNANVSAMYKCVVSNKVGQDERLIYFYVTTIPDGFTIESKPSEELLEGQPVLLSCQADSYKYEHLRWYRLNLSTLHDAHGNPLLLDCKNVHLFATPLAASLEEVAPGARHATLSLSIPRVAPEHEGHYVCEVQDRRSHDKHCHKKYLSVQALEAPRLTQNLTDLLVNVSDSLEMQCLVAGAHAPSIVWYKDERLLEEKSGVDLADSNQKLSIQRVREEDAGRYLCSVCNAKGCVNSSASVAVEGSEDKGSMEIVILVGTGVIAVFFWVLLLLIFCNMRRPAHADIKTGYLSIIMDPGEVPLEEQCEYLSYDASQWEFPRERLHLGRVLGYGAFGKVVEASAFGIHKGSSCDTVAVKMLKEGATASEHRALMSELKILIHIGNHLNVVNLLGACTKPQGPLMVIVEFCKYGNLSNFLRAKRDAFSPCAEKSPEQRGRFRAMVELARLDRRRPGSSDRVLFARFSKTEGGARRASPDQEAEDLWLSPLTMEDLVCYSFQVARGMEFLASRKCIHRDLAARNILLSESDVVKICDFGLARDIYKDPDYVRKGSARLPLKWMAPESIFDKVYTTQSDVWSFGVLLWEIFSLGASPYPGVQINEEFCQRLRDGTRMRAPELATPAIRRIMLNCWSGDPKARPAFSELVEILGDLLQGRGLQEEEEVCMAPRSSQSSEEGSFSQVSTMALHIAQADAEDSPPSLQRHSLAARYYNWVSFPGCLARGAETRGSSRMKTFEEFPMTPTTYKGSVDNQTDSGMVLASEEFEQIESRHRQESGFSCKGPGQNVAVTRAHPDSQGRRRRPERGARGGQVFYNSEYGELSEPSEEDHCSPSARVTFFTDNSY
B-RAF-VE, sequence (P15056 whole entry V600E): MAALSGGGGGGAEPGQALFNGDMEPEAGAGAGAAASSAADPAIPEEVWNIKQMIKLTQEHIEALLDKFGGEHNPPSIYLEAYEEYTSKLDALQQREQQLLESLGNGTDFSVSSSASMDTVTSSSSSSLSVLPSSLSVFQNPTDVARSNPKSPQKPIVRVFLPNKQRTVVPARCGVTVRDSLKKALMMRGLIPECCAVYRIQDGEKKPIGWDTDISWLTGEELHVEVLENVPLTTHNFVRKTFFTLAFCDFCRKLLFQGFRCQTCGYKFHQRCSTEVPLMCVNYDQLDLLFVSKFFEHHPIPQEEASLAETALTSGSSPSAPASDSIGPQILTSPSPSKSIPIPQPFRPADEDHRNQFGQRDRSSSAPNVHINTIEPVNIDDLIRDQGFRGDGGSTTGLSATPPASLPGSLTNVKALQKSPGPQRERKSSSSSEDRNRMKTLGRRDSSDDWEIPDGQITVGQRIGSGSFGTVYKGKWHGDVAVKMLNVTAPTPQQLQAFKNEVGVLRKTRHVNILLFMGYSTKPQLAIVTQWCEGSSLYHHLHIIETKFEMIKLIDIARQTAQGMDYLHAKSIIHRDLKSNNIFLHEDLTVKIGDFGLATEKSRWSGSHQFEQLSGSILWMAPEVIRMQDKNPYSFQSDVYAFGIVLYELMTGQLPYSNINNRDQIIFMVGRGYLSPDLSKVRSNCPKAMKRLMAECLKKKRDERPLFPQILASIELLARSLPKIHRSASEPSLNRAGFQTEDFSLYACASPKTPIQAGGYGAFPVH
Aurora-B, sequence (Q96GD4 whole entry): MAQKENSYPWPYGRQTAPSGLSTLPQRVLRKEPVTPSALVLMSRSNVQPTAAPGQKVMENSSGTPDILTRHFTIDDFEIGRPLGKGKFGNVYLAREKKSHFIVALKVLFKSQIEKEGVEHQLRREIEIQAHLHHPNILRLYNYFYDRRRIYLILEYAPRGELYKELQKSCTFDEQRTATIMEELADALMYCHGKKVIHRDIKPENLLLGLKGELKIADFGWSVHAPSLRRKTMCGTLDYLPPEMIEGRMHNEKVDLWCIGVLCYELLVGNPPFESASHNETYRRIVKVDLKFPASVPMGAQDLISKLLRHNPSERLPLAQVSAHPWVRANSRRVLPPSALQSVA
PLK1, sequence (P53350 whole entry): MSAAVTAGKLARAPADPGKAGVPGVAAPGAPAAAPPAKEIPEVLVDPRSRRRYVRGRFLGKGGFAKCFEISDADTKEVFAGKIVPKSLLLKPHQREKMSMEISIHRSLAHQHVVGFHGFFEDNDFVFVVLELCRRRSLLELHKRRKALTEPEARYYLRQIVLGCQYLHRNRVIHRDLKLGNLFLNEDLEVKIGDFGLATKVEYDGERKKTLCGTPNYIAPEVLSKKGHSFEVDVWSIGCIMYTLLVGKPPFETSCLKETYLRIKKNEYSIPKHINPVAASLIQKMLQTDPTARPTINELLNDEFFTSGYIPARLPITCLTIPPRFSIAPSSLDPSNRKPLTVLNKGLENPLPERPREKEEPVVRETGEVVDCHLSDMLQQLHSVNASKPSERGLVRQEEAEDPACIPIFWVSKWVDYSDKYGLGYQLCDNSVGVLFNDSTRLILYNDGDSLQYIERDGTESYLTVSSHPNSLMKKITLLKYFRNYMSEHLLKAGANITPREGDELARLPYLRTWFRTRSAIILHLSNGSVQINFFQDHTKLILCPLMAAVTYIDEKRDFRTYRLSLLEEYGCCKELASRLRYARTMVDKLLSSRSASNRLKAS
COT, sequence (P41279 whole entry): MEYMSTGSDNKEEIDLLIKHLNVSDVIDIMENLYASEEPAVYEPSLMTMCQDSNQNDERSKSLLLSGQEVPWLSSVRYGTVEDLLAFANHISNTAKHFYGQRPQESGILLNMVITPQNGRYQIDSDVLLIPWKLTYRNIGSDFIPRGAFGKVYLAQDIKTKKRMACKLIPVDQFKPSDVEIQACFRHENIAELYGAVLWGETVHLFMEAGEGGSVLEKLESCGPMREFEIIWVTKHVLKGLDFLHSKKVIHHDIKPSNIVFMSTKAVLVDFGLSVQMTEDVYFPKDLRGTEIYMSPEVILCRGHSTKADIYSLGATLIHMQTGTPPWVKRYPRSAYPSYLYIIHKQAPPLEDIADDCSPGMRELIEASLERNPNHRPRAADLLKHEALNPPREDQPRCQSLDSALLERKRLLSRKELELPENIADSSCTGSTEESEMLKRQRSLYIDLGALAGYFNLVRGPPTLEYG
CK2a1, sequence (P68400 whole entry): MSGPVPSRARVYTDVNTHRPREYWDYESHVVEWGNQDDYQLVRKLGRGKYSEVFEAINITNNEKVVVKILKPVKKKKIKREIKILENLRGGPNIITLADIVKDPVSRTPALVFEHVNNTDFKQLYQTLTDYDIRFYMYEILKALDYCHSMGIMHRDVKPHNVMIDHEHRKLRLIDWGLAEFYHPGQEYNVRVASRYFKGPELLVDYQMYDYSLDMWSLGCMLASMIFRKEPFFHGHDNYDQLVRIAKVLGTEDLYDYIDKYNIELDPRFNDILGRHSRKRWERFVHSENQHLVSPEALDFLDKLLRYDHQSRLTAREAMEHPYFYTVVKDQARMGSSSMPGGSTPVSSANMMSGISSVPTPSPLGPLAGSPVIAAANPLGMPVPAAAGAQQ

Compound	IC50 (MET) [µM]	IC50 (B-RAF-VE) [µM]	IC50 (VEGF-R3) [µM]	IC50 (COT) [µM]	IC50 (SAK) [µM]	IC50 (FLT3) [µM]	IC50 (PLK1) [µM]	IC50 (CK2a1) [µM]	IC50 (ERBB2) [µM]	IC50 (Aurora-B) [µM]	cytotoxic effect on the other cells tested [1]	IC50 (PDGFRβ) [µM]	further results
3-(indole-3-yl)-4-(3,4,5-trimethoxyphenyl)-1H-pyrrole-2,5-dione [Compound 1, reference compound]	60	> 100	0.037	32	10	61	> 100	> 100	51	66			IC50 (CDK4/CycD1): 56 µM; IC50 (CDK2/CycA): 66 µM
COc1cc(-c2nc(-c3c[nH]c4ccccc34)c[nH]c2=O)cc(OC)c1OC [Compound 5, 5-(1H-indole-3-yl)-3-(3,4,5-trimethoxyphenyl)pyrazin-2(1H)-one]	> 100	> 100	5	> 100	> 100	36	> 100	> 100	> 100	> 100	significantly less affected	0.5	IC50 (INSR): > 100 µM; IC50 (µM) VEGF-R3 (VEGF-R3): low µM range; IC50 (VEGF-R2): 4 µM; IC50 (SRC): > 100 µM; IC50 (AKT1): > 100 µM; IC50 (EPHB4): > 100 µM; IC50 (Aurora-A): > 100 µM; IC50 (FAK): > 100 µM; IC50 (EGFR): > 100 µM; IC50 (IGF1R): > 100 µM; IC50 (TIE2): > 100 µM; IC50 (ARK5): > 100 µM
COc1ccc(-c2nc(-c3c[nH]c4ccccc34)c[nH]c2=O)cc1OC [Compound 6, 3-(3,4-dimethoxyphenyl)-5-(1H-indol-3-yl)-1H-pyrazin-2-one]												1.5	
COc1ccc(-c2nc(-c3c[nH]c4ccccc34)c[nH]c2=O)cc1 [Compound 7, 3-(4-methoxyphenyl)-5-(1H-indol-3-yl)-1H-pyrazin-2-one]												19	
COc1cc(-c2nc(-c3c[nH]c4ccc(O)cc34)c[nH]c2=O)cc(OC)c1OC [Compound 8, 5-(5-hydroxy-1H-indole-3-yl)-3-(3,4,5-trimethoxyphenyl)pyrazin-2(1H)-one]											significantly less affected	0.3	IC50 (HL-60 cells): 30 µM
O=C1NC[C@@H](c2c[nH]c3cc(Br)ccc23)N[C@H]1c1c[nH]c2cc(Br)ccc12 [cis-3,4-dihydro hamacanthin B]													IC50 [2]: 0.016 µM
